According to ChEMBL document CHEMBL2424542, “3-Carboxy-pyrazolinalanine as a new scaffold for developing potent and selective NMDA receptor antagonists” (Eur J Med Chem, 2013):

How the values were obtained:
Type in all cases: cell membranes, Membrane
[1] = Displacement of [3H]KAIN from kainate receptor in rat cortical membranes
[2] = target: Glutamate NMDA receptor; assay: Displacement of [3H]CGP39653 from NMDA receptor in rat cortical membranes
[3] = Displacement of [3H]AMPA from AMPA receptor in rat cortical membranes

N[C@H](C[C@@H]1CC(C(=O)O)=NN1c1ccccc1)C(=O)O (racemic)
IC50 [1]: > 100 µM | Ki [2]: 0.2 µM | IC50 [3]: > 100 µM

N[C@H](C[C@@H]1CC(C(=O)O)=NN1)C(=O)O (racemic)
IC50 [1]: > 100 µM | Ki [2]: 1.7 µM | IC50 [3]: > 100 µM

N[C@H](C[C@H]1CC(C(=O)O)=NO1)C(=O)O (racemic)
IC50 [1]: > 100 µM | IC50 [3]: > 100 µM

N[C@H](C[C@H]1CC(C(=O)O)=NN1)C(=O)O (racemic)
IC50 [1]: > 100 µM | Ki [2]: 0.17 µM | IC50 [3]: > 100 µM

N[C@H](C[C@H]1CC(C(=O)O)=NN1c1ccccc1)C(=O)O (racemic)
IC50 [1]: > 100 µM | Ki [2]: 0.026 µM | IC50 [3]: > 100 µM

N[C@H](C[C@@H]1CC(C(=O)O)=NN1Cc1ccccc1)C(=O)O (racemic)
IC50 [1]: > 100 µM | Ki [2]: 9.9 µM | IC50 [3]: > 100 µM

N[C@H](C[C@H]1CC(C(=O)O)=NN1Cc1ccccc1)C(=O)O (racemic)
IC50 [1]: > 100 µM | Ki [2]: 1.4 µM | IC50 [3]: > 100 µM

N[C@H](C[C@@H]1CC(C(=O)O)=NO1)C(=O)O (racemic)
IC50 [1]: > 100 µM | IC50 [3]: > 100 µM
